According to US4026888A, “Certain derivatives of particular 3-thiolated cephalosporins” (priority 1976, dated 1977):
Converted amounts (≈) assume the structure as drawn.

Assays:
[1] = Water solubility; format: physicochemical; conditions: in water at 23° C., read-out: Water solubility
[2] = Stability of solids; format: physicochemical; conditions: solid, read-out: Loss of bioactivity on storage at elevated temperatures
[3] = tested on: P. mirabilis A9900; assay: Oral PD50 in mice; format: in vivo; conditions: oral, mice treated at 1 and 3.5 hours post-challenge
[4] = tested on: E. coli A15119; assay: Oral PD50 in mice; format: in vivo; conditions: Escherichia coli, A15119, po, 3.5 h, oral; mice treated at 1 and 3.5 hours post-challenge; read-out: PD50
Method: (§1) Comparative Oral PD50 Values of
(§2) BL-S640 Derivatives in Mice
(§3) *Mice were treated at 1 and 3.5 hours post-challenge.

[5] = tested on: P. mirabilis A9707; assay: Oral PD50 in mice; format: in vivo; conditions: Proteus mirabilis, mice treated at 1 and 3.5 hours post-challenge
Method: as §1, §2, §3

[6] = tested on: S. pyogenes A9604; assay: Oral PD50 in mice; format: in vivo; conditions: Streptococcus pyogenes, mice treated at 1 and 3.5 hours post-challenge
Method: as §1, §2, §3

[7] = tested on: K. pneumoniae A9977; assay: Oral PD50 in mice; format: in vivo; conditions: Klebsiella pneumoniae, A9977; oral; mice treated at 1 and 3.5 hours post-challenge; read-out: PD50
Method: as §1, §2, §3

[8] = tested on: P. mirabilis A9900; assay: IM PD50 in mice; format: in vivo; conditions: Proteus mirabilis
Text: Comparative IM PD50 Values of
as §2

[9] = tested on: S. aureus Meth-Res A15097; assay: Antibiotic activity in nutrient broth (MIC); format: cell-based; conditions: Staphylococcus aureus
Text: (§4) Antibiotic Activity In Nutrient Broth
(§5) ** Dilution of overnight broth culture.
(§6) Antibiotic Spectrum Nutrient Broth
(§7) Antibiotic Spectrum in Nutrient Broth

[10] = tested on: Ent. cloacae A9657; assay: Antibiotic activity in nutrient broth (MIC); format: cell-based; conditions: Enterobacter cloacae, A9657, inoculum 10^-4; derivatives adjusted for BL-S640 content; read-out: MIC
Text: as §4, §5, §6, §7

[11] = tested on: Ent. cloacae A9659; assay: Antibiotic activity in nutrient broth (MIC); format: cell-based; conditions: Enterobacter cloacae, A9659
Text: as §4, §5, §6, §7

[12] = tested on: S. aureus Smith A9537; assay: Antibiotic activity in nutrient broth (MIC); format: cell-based; conditions: Staphylococcus aureus, SMITHA9537, inoculum 10^-4, derivatives adjusted for BL-S640 content
Text: as §4, §5, §6, §7

[13] = tested on: S. aureus BX1633 A9606; assay: Antibiotic activity in nutrient broth (MIC); format: cell-based; conditions: Staphylococcus aureus, derivatives adjusted for BL-S640 content
Text: as §4, §5, §6, §7

[14] = tested on: K. pneumoniae A15130; assay: Antibiotic activity in nutrient broth (MIC); format: cell-based; conditions: Klebsiella pneumoniae, A15130
Text: as §4, §5, §6, §7

[15] = tested on: E. coli Juhl A15119; assay: Antibiotic activity in nutrient broth (MIC); format: cell-based; conditions: Escherichia coli, JUHLA15119
Text: as §4, §5, §6, §7

[16] = tested on: E. coli A9675; assay: Antibiotic activity in nutrient broth (MIC); format: cell-based; conditions: Escherichia coli, A9675
Text: as §4, §5, §6, §7

[17] = tested on: Ser. marcescens A20019; assay: Antibiotic activity in nutrient broth (MIC); format: cell-based; conditions: Serratia marcescens, A20019, inoculum 10^-4; derivatives adjusted for BL-S640 content
Text: as §4, §5, §6, §7

[18] = tested on: Pr. mirabilis A9900; assay: Antibiotic activity in nutrient broth (MIC); format: cell-based; conditions: Proteus mirabilis, inoculum 10^-4, derivatives adjusted for BL-S640 content
Text: as §4, §5, §6, §7

[19] = tested on: K. pneumoniae A9977; assay: Antibiotic activity in nutrient broth (MIC); format: cell-based; conditions: Klebsiella pneumoniae
Text: as §4, §5, §6, §7

[20] = tested on: Ps. aeruginosa A9843A; assay: Antibiotic activity in nutrient broth (MIC); format: cell-based; conditions: Pseudomonas aeruginosa
Text: as §4, §5, §6, §7

[21] = tested on: Ent. cloacae A9656; assay: Antibiotic activity in nutrient broth (MIC); format: cell-based; conditions: Enterobacter cloacae, A9656, inoculum 10^-4; derivatives adjusted for BL-S640 content
Text: as §4, §5, §6, §7

[22] = tested on: Sal. enteritidis A9531; assay: Antibiotic activity in nutrient broth (MIC); format: cell-based; conditions: Salmonella enterica, ENTERITIDIS, inoculum 10^-4; derivatives adjusted for BL-S640 content; read-out: MIC
Text: as §4, §5, §6, §7

[23] = tested on: Pr. morganii A15153; assay: Antibiotic activity in nutrient broth (MIC); format: cell-based; conditions: Morganella morganii, A15153
Text: as §4, §5, §6, §7

[24] = tested on: Str. pyogenes A9604; assay: Antibiotic activity in nutrient broth (MIC); format: cell-based; conditions: Streptococcus pyogenes, A9604, inoculum 10^-3; 45% AAB + 5% serum + 50% broth; derivatives adjusted for BL-S640 content; read-out: MIC
Text: as §4
(§8) * 45% AAB+ 5% serum+ 50% broth listed above.
as §5, §6
(§9) * 45% AAB + 5% serum + 50% broth
as §7
(§10) *45% AAB + 5% serum + 50% broth listed above.

[25] = tested on: Str. pneumoniae A9585; assay: Antibiotic activity in nutrient broth (MIC); format: cell-based; conditions: Streptococcus pneumoniae, A9585, inoculum 10^-3 dilution of overnight broth culture; 45% AAB + 5% serum + 50% broth; derivatives adjusted for BL-S640 content
Text: as §4, §8, §5, §6, §9, §7, §10

For N[C@@H](C(=O)N[C@@H]1C(=O)N2C(C(=O)O)=C(CSc3c[nH]nn3)CS[C@H]12)c1ccc(O)cc1 [7-[D-α-amino-α-(p-hydroxyphenyl)acetamido]-3-(1,2,3-triazol-5-ylthiomethyl)-3-cephem-4-carboxylic acid propylene glycol solvate], the solubility [1] was roughly 10000 µg/mL, the degraded at 720 h ([2]; 56° C., 1 month) was less than 10% and the degraded at 24 h ([2]; 100° C., 24 hours) was less than 6%. It also gave a degraded at 48 h ([2]; 100° C., 48 hours) of less than 12%.
Compound CC1=C(C(=O)O)N2C(=O)[C@@H](NC(=O)[C@H](N)c3ccccc3)[C@H]2SC1 [Cephalexin, reference compound] has an ED50 ([3]; Proteus mirabilis, A9900, po, 3.5 h, read-out: PD50) of 66 mg/kg, a PD50 [3] of 55 mg./kg./treatment and an ED50 [4] of 13 mg/kg. It also gave an ED50 [5] of 50 mg/kg, an ED50 [6] of 11 mg/kg and an ED50 [7] of 43 mg/kg. It also gave an ED50 [8] of 50 mg/kg.
For CC(=O)OCC1=C(C(=O)O)N2C(=O)[C@@H](NC(=O)Cc3cccs3)[C@H]2SC1 [Cephalothin, reference compound], the MIC [9] was 1 to 16 µg/mL (≈ 2.52 to 40.4 µM), the MIC [10] was 8 µg/mL (≈ 20.2 µM) and the MIC [11] was greater than 125 µg/mL. It also gave an MIC ([12]; + 50% serum) of 0.5 µg/mL, an MIC ([12]; nutrient broth) of 0.13 µg/mL (≈ 0.328 µM) and an MIC ([13]; BX1633A9606, inoculum 10^-2) of 0.25 µg/mL (≈ 0.631 µM). It also gave an MIC ([13]; BX1633A9606, inoculum 10^-3) of 0.13 µg/mL (≈ 0.328 µM), an MIC [14] of 32 µg/mL (≈ 80.7 µM) and an MIC [15] of 16 µg/mL (≈ 40.4 µM). The MIC [16] was 32 µg/mL (≈ 80.7 µM), the MIC [17] was greater than 125 µg/mL and the MIC [18] was 1 µg/mL (≈ 2.52 µM). It also gave an MIC [19] of 1 µg/mL (≈ 2.52 µM), an MIC [20] greater than 125 µg/mL and an MIC [21] greater than 125 µg/mL. The MIC [22] was 0.25 µg/mL (≈ 0.631 µM), the MIC [23] was greater than 125 µg/mL and the MIC [24] was 0.03 µg/mL. The MIC [25] was 0.03 µg/mL.
